Laboratory results as given in US20100152297A1, “COMPOSITION FOR REGULATING CELLULAR SENESCENCE COMPRISING N-[2-(CYCLOHEXY-LOXYL)-4-NITROPHENYL]-METHANESULFONAMIDE” (priority 2007, published 2010).
“Also recorded” adds a separate entry of the source.

Legend:
Drosophila = settings: long-term administration; reference 15; cited from earlier work
human fibroblasts [1] = assay: Regulation of growth rate: number of population doublings (PDs); type: cell-based; settings: for reduction of the maximum number of population doublings compared to DMSO: celecoxib 1 μM, nimesulide 20 μM, aspirin 1 mM, ibuprofen 20 μM, flurbiprofen 5 μM; for effect on cellular senescence: conclusion from population doublings and SA-β-gal staining
Protocol: According to the literature of Boyce and Ham (1983), human fibroblasts were isolated from foreskin, and then cultured in a DMEM medium, containing 10% fetal bovine serum (Life Technology Inc., Grand Island, N.Y.), penicillin (100 units/ml) and streptomycin (100 units/ml)). […] Then, the number of the cells was calculated by trypan blue staining, and the number of population doublings (PDs) of the cells was calculated according to the following equation 1: Number of population doublings (PDs)=log(A/B)/log2 [Math Figure 1] wherein A is the number of cells harvested at one passage, and B is the initial cell number at that passage.

human fibroblasts [2] = assay: Senescence-associated beta-galactosidase (SA-β-gal) staining; type: cell-based; settings: celecoxib 1 μM, nimesulide 20 μM, aspirin 1 mM, ibuprofen 20 μM, flurbiprofen 5 μM
Protocol: Herein, the senescence-associated β-galactosidase (SA-β-gal) staining was performed in the following manner according to the method of Dimri et al. (1995) (17). […] The cultured cells were seeded on a 35 mm dish, and then stabilized. Then, the cells were washed twice with PBS and fixed with 3% formaldehyde at room temperature for 5 minutes. […] During the progression of the reaction, light was blocked. […] The experiment was independently repeated twice, and the mean value and standard deviation of the measurements were calculated.

[3] = test system: human vascular endothelial cells; settings: reference 16; cited from earlier work
caveolin-1 = assay: Western blot, caveolin-1 expression; type: cell-based, human; settings: for expression of caveolin-1: cells cultured with inhibitor, harvested at each passage; for expression of caveolin-1, short treatment: short period of time (NS-398: 4 hours)
Protocol: (§1) In order to examine the effects of COX-2 inhibitors on cellular senescence, cells were cultured and treated in the same manner as in Example 2, and then subjected to Western blot. The cultured cells were washed and collected in PBS, and then were disrupted in RIPA buffer (150 mM NaCl, 100 mM Tris-HCl, 1% Tween-20, 1% sodium deoxycholate and 0.1% SDS), containing 0.5 mM EDTA, 1 mM PMSF, 10 μg/ml leupeptin, 10 μg/ml aprotinin and 10 μg/ml pepstatin. The disrupted cells were centrifuged, and the supernatant was collected. Proteins in the cell extract were isolated by SDS-PAGE and transferred to nitrocellulose membranes. Then, the proteins were allowed to react with each of p53, p21, COX-1, COX-2 and caveolin-1 antibodies, and the protein-antibody complexes on the nitrocellulose membranes were allowed to react with peroxidase-conjugated anti-mouse or anti-rabbit secondary antibody. Then, the corresponding bands were visualized by chemiluminescence (Amersham Bioscience, Boston, Mass.) using an ECL kit. Herein, the antibodies for p53, p21 and COX-1 were purchased from Oncogene Science (Cambridge, Mass.), Cell Signaling Technology, Inc. (Danvers, Mass.), and Santa Cruz Biotechnology (Santa Cruz, Calif.), respectively, and the antibodies for COX-2 and cavelolin-1 were purchased from BD Bioscience (San Jose, Calif.). Also, β-actin was used as an intracellular control protein to correct the amount of the intracellular total protein.

p21 = assay: Western blot, p21 expression; type: cell-based, human; settings: cells cultured with inhibitor, harvested at each passage
Protocol: as §1, with “Also, β-actin was used as an intracellular control protein to correct the amount of the intracellular total protein.” left out

p53 = assay: Western blot, p53 expression; type: cell-based, human; settings: cells cultured with inhibitor, harvested at each passage
Protocol: In order to examine the effects of COX-2 inhibitors on cellular senescence, cells were cultured and treated in the same manner as in Example 2, and then subjected to Western blot. The cultured cells were washed and collected in PBS, and then were disrupted in RIPA buffer (150 mM NaCl, 100 mM Tris-HCl, 1% Tween-20, 1% sodium deoxycholate and 0.1% SDS), containing 0.5 mM EDTA, 1 mM PMSF, 10 μg/ml leupeptin, 10 μg/ml aprotinin and 10 μg/ml pepstatin. The disrupted cells were centrifuged, and the supernatant was collected. Proteins in the cell extract were isolated by SDS-PAGE and transferred to nitrocellulose membranes. Then, the proteins were allowed to react with each of p53, p21, COX-1, COX-2 and caveolin-1 antibodies, and the protein-antibody complexes on the nitrocellulose membranes were allowed to react with peroxidase-conjugated anti-mouse or anti-rabbit secondary antibody. Then, the corresponding bands were visualized by chemiluminescence (Amersham Bioscience, Boston, Mass.) using an ECL kit. Herein, the antibodies for p53, p21 and COX-1 were purchased from Oncogene Science (Cambridge, Mass.), Cell Signaling Technology, Inc. (Danvers, Mass.), and Santa Cruz Biotechnology (Santa Cruz, Calif.), respectively, and the antibodies for COX-2 and cavelolin-1 were purchased from BD Bioscience (San Jose, Calif.). […]

[4] = test system: SOD-2 (superoxide dismutase-2); assay: Western blot, SOD-2 expression; type: cell-based, human; settings: P28 cells cultured in the presence of inhibitor
human promonocytes = settings: reference 25; cited from earlier work
[5] = test system: Gpx-1 (glutathione peroxidase-1); assay: Western blot, Gpx-1 expression; type: cell-based, human; settings: P28 cells cultured in the presence of inhibitor
collagen = settings: fibroblasts and hepatic stellate cells; references 24 and 36; cited from earlier work
caveolin-1 mRNA = assay: RT-PCR, caveolin-1 mRNA; type: cell-based, human; settings: corrected with GAPDH
Protocol: In order to examine the effects of COX-2 inhibitors on cellular senescence, cells were cultured and treated in the same manner as in Example 2, and then subjected to RT-PCR. […] The cavelolin-1 gene was amplified using a sense primer ([NT]) and an anti-sense primer ([NT]), and the GAPDH gene was amplified using a sense primer ([NT]) and an anti-sense primer ([NT]). The polymerase chain reaction was performed in the following conditions: 25 cycles of 30 sec at 95 t, 30 sec at 60° C. and 30 sec at 72° C. The resulting DNA products were electrophoresed on 2% agarose gel containing EtBr.

total cholesterol = assay: Analysis of intracellular total cholesterol; type: cell-based, human; settings: corrected with protein concentration
Protocol: In order to examine the effects of COX-2 inhibitors on cellular senescence, cells were cultured and treated in the same manner as in Example 2, and then analyzed for cholesterol. 2×10^6 cells were treated with a mixture of chloroform and methanol (2:1) to extract a fatty component. The amount of total cholesterol in the fatty component was measured at 570 nm using a staining method according to the manual of BioVision (Mountain View, Calif.), and the measured values were corrected with the protein concentration.

catalase = assay: Western blot, catalase expression; type: cell-based, human; settings: P28 cells cultured in the presence of inhibitor
reactive oxygen species = assay: Measurement of reactive oxygen species with DCFH-DA; type: cell-based, human; settings: treated for a long period of time (65 days), P29
Protocol: In order to examine the effects of COX-2 inhibitors on cellular senescence, cells were cultured and treated in the same manner as in Example 2, and reactive oxygen in the cells was then measured. The cultured cells were treated with 5 μM DCFH-DA (Invitrogen, Carlsbad, Calif.), and the cells were incubated at 37 C for 45 minutes and then washed with PBS. The washed cells were collected in 1 ml PBS, and then disrupted with ultrasonic waves. The fluorescence of the cells was measured with a fluorescence spectrophotometer (Molecular Devices, Sunnyvale, Calif.), and the measured fluorescence value was corrected with the cell number.

CC(=O)Oc1ccccc1C(=O)O [aspirin, acetylsalicylic acid]
average lifespan of Drosophila (Drosophila): led to a decrease in the average lifespan of the Drosophila or had no effect on the average lifespan
reduction of the maximum number of population doublings compared to DMSO (human fibroblasts [1]; PD 24 before treatment): 7 times
effect on cellular senescence (human fibroblasts [1]): promoted cellular senescence
increase of the ratio of SA-β-gal positive cells compared to DMSO (human fibroblasts [2]): 1.9 times
effect on senescence in human vascular endothelial cells [3]: inhibited senescence

CC(C)Cc1ccc(C(C)C(=O)O)cc1 (stereo not shown) [ibuprofen]
reduction of the maximum number of population doublings compared to DMSO (human fibroblasts [1]; PD 24 before treatment): 5 times
effect on cellular senescence (human fibroblasts [1]): promoted cellular senescence
increase of the ratio of SA-β-gal positive cells compared to DMSO (human fibroblasts [2]): 1.7 times

O=C(O)c1ccccc1O [salicylic acid]
average lifespan of Drosophila (Drosophila): led to a decrease in the average lifespan of the Drosophila or had no effect on the average lifespan

CS(=O)(=O)Nc1ccc([N+](=O)[O-])cc1OC1CCCCC1 [NS-398, N-[2-(cyclohexyloxyl)-4-nitrophenyl]-methanesulfonamide]
expression of caveolin-1 (caveolin-1): inhibited the expression of caveolin-1 at all passages
expression of caveolin-1, short treatment (caveolin-1): clearly inhibited
expression of p21 (p21): inhibited
expression of p53 (p53): without inhibiting
expression of SOD-2 [4]: reduced
reactive oxygen species in human promonocytes (human promonocytes): remove reactive oxygen species
expression of Gpx-1 [5]: increased
increase of the maximum number of population doublings compared to DMSO (human fibroblasts [1]; PD 24 before treatment, NS-398 20 μM): 7 times
effect on cellular senescence (human fibroblasts [1]): inhibited cellular senescence; also recorded: strongly inhibits cellular senescence
expression of collagen (collagen): increased
mRNA level of caveolin-1 (caveolin-1 mRNA): reduced
intracellular total cholesterol concentration (total cholesterol): reduced
expression of catalase (catalase): reduced
reduction of the level of reactive oxygen species (reactive oxygen species): three

Cc1ccc(-c2cc(C(F)(F)F)nn2-c2ccc(S(N)(=O)=O)cc2)cc1 [celecoxib]
increase of the level of reactive oxygen species (reactive oxygen species): 1.2 times

COc1ccc2c(c1)c(CC(=O)O)c(C)n2C(=O)c1ccc(Cl)cc1 [indomethacin]
average lifespan of Drosophila (Drosophila): led to a decrease in the average lifespan of the Drosophila or had no effect on the average lifespan
effect on senescence in human vascular endothelial cells [3]: promoted senescence

CC(C(=O)O)c1ccc(-c2ccccc2)c(F)c1 (stereo not shown) [flurbiprofen]
reduction of the maximum number of population doublings compared to DMSO (human fibroblasts [1]; PD 24 before treatment): 4 times
effect on cellular senescence (human fibroblasts [1]): promoted cellular senescence
increase of the ratio of SA-β-gal positive cells compared to DMSO (human fibroblasts [2]): 1.6 times

CS(=O)(=O)Nc1ccc([N+](=O)[O-])cc1Oc1ccccc1 [nimesulide]
expression of caveolin-1 (caveolin-1): increased
expression of caveolin-1, short treatment (caveolin-1): did not significantly change
expression of p21 (p21): increased
expression of p53 (p53): increased
expression of SOD-2 [4]: reduced
reactive oxygen species in human promonocytes (human promonocytes): remove reactive oxygen species
expression of Gpx-1 [5]: reduced
reduction of the maximum number of population doublings compared to DMSO (human fibroblasts [1]; PD 24 before treatment): two
effect on cellular senescence (human fibroblasts [1]): promoted cellular senescence
mRNA level of caveolin-1 (caveolin-1 mRNA): increased
intracellular total cholesterol concentration (total cholesterol): increased
expression of catalase (catalase): reduced
increase of the ratio of SA-β-gal positive cells compared to DMSO (human fibroblasts [2]): 1.3 times
increase of the level of reactive oxygen species (reactive oxygen species): 1.2 times
